In the oligonucleotide strings, read from the 5' end, every base follows the letter of its sugar. An asterisk marks phosphorothioate; unmarked linkages are phosphodiester. Other units and linkages are bracketed, terminal groups are in braces. A string of capitals states the bases alone. {NAG37} = tridentate N-acetyl-galactosamine targeting ligand, structure (NAG37)s; [invAb] = inverted abasic unit; m = 2'-O-methyl; f = 2'-fluoro
Tested on: ANGPTL3 gene
Assay: Example 14: RNAi agent and statin, serum total cholesterol in LDLR knockout mice
Assay type: in vivo, LDLR KO mice
Excerpt: To evaluate the effect of co-administration of RNAi agents and statins in a disease model, LDLR KO mice were commercially obtained (The Jackson Laboratory). For three weeks prior to the onset of the study, forty-one (41) male 7 to 8 week old LDLR KO mice were placed on a high fat (“western”) diet (Teklad Custom Diets TD.88137), and remained on that diet throughout the duration of the study. Pre-dose serum samples were taken on study Day 1 after a four hour fast. The dosing regimen for the study is recited in the following Table 72:
• Mice were treated at 40 mg/kg for the first 11 days, then switched to 20 mg/kg thereafter.
The vehicle used for the oral gavage in the study was a 1:1 mixture of Ora-Plus®: Ora-Sweet® solution, which were acquired commercially. For the preparation of the atorvastatin oral gavage administrations, the respective desired dose of atorvastatin was first dissolved in sterile water (0.3 mL water per 1 mL of desired formulation) and vortexed until smooth, followed by the addition of a mixture of 1:1 Ora-Plus®: Ora-Sweet® solution (0.7 mL vehicle per 1 mL of desired formulation) and vortexed. On day 1 and for each day thereafter an oral gavage dose was administered for each of the Groups except for Group 2. On Day 23, Groups 1, 2, 3, and 4 received a single subcutaneous administration of 2.5 mg/kg dose ([…] solution) of an ANGPTL3 RNAi agent in D5W (dextrose in 5% water), or vehicle control (D5W) with no RNAi agent.
The RNAi agent tested (AD05488) included a modified sequence and an N-acetyl-galactosamine-containing targeting ligand conjugated to the 5′ terminal end of the sense strand. (See Tables 3, 4, and 5 for modified sequences and targeting ligand structures). The injections were performed between the skin and muscle (i.e. subcutaneous injections) into the loose skin over the neck and shoulder area. Serum was collected on days 8, 15, 22 (pre-RNAi agent injection), 29, 36, 43, and 50. LDLR KO mice were fasted for four hours prior to each collection.
ANGPTL3 protein levels in serum were measured by ELISA assay (R&D Systems), according to the manufacturer's recommendations. Among other biomarkers, triglycerides, total cholesterol, and low-density lipoprotein (LDL) in serum were measured on a Cobas® Integra 400 (Roche Diagnostics), according to the manufacturer's recommendations.
The ANGPTL3 protein levels, triglyceride levels, total cholesterol levels, HDL levels, and LDL levels for each animal were normalized. For normalization, respective levels of ANGPTL3 protein, TG, total cholesterol, or LDL for each animal at a time point was divided by the pre-treatment level of expression in that animal (in this case pre-dose levels on Day 1) to determine the ratio of expression “normalized to pre-treatment.” Data from the study set forth in this Example are shown in the following Tables 73-76: […]

AD05488: RNAi agent duplex: antisense AM07235-AS, sense AM07234-SS (antisense mU*fA*mC*fUmGfAmUfCmAfAmAfUmAfUmGfUmUfGmAfG*mC; sense {NAG37}*[invAb]*mGmCmUmCmAmAmCmAfUfAfUmUmUmGmAmUmCmAmGmUmA*[invAb])
Avg Total Chol normalized to pre-treatment (Group 2: no gavage, 2.5 mg/kg AD05488 SC on day 23, Day 8 (pre-RNAi agent injection)): 0.962 | Avg Total Chol normalized to pre-treatment (Group 2: no gavage, 2.5 mg/kg AD05488 SC on day 23, Day 15 (pre-RNAi agent injection)): 1.122 | Avg Total Chol normalized to pre-treatment (Group 2: no gavage, 2.5 mg/kg AD05488 SC on day 23, Day 22 (pre-RNAi agent injection)): 1.261 | Avg Total Chol normalized to pre-treatment (Group 2: no gavage, 2.5 mg/kg AD05488 SC on day 23, Day 29): 0.645 | Avg Total Chol normalized to pre-treatment (Group 2: no gavage, 2.5 mg/kg AD05488 SC on day 23, Day 36): 0.518 | Avg Total Chol normalized to pre-treatment (Group 2: no gavage, 2.5 mg/kg AD05488 SC on day 23, Day 43): 0.512 | Avg Total Chol normalized to pre-treatment (Group 2: no gavage, 2.5 mg/kg AD05488 SC on day 23, Day 50): 0.515 | Avg Total Chol normalized to pre-treatment (Group 3: 10 mg/kg daily oral gavage atorvastatin, 2.5 mg/kg AD05488 on day 23, Day 8 (pre-RNAi agent injection)): 0.763 | Avg Total Chol normalized to pre-treatment (Group 3: 10 mg/kg daily oral gavage atorvastatin, 2.5 mg/kg AD05488 on day 23, Day 15 (pre-RNAi agent injection)): 0.620 | Avg Total Chol normalized to pre-treatment (Group 3: 10 mg/kg daily oral gavage atorvastatin, 2.5 mg/kg AD05488 on day 23, Day 22 (pre-RNAi agent injection)): 0.758 | Avg Total Chol normalized to pre-treatment (Group 3: 10 mg/kg daily oral gavage atorvastatin, 2.5 mg/kg AD05488 on day 23, Day 29): 0.444 | Avg Total Chol normalized to pre-treatment (Group 3: 10 mg/kg daily oral gavage atorvastatin, 2.5 mg/kg AD05488 on day 23, Day 36): 0.362 | Avg Total Chol normalized to pre-treatment (Group 3: 10 mg/kg daily oral gavage atorvastatin, 2.5 mg/kg AD05488 on day 23, Day 43): 0.331 | Avg Total Chol normalized to pre-treatment (Group 3: 10 mg/kg daily oral gavage atorvastatin, 2.5 mg/kg AD05488 on day 23, Day 50): 0.322 | Avg Total Chol normalized to pre-treatment (Group 4: 20 mg/kg* daily oral gavage atorvastatin (40 mg/kg first 11 days), 2.5 mg/kg AD05488 on day 23, Day 8 (pre-RNAi agent injection)): 0.682 | Avg Total Chol normalized to pre-treatment (Group 4: 20 mg/kg* daily oral gavage atorvastatin (40 mg/kg first 11 days), 2.5 mg/kg AD05488 on day 23, Day 15 (pre-RNAi agent injection)): 0.622 | Avg Total Chol normalized to pre-treatment (Group 4: 20 mg/kg* daily oral gavage atorvastatin (40 mg/kg first 11 days), 2.5 mg/kg AD05488 on day 23, Day 22 (pre-RNAi agent injection)): 0.857 | Avg Total Chol normalized to pre-treatment (Group 4: 20 mg/kg* daily oral gavage atorvastatin (40 mg/kg first 11 days), 2.5 mg/kg AD05488 on day 23, Day 29): 0.448 | Avg Total Chol normalized to pre-treatment (Group 4: 20 mg/kg* daily oral gavage atorvastatin (40 mg/kg first 11 days), 2.5 mg/kg AD05488 on day 23, Day 36): 0.295 | Avg Total Chol normalized to pre-treatment (Group 4: 20 mg/kg* daily oral gavage atorvastatin (40 mg/kg first 11 days), 2.5 mg/kg AD05488 on day 23, Day 43): 0.293 | Avg Total Chol normalized to pre-treatment (Group 4: 20 mg/kg* daily oral gavage atorvastatin (40 mg/kg first 11 days), 2.5 mg/kg AD05488 on day 23, Day 50): 0.310 | total reductions in total cholesterol (co-administration of atorvastatin and RNAi agent (Groups 3 and 4), LDLR KO mice on high fat diet): ~ 70%
